# According to US20060188938A1, “Compounds for inhibiting beta-amyloid production and methods of identifying the compounds” (priority 2005, published 2006):
# Test system: β-amyloid production by 7W WT APP751 CHO cells
# Assay: Screening of dihydropyridine compounds (Maybridge), Aβ1-40 and Aβ1-42 ELISA (Example 2)
# Format: cell-based, Chinese hamster
# Settings: 30 μM, 24 hours (FIGS. 5A-B)
# Procedure: Dihydropyridine compounds were obtained from Maybridge (England). Each compound was dissolved in DMSO. 7W WT APP751 CHO cells overexpressing APP751 were plated into 96-well culture plates in 200 μL of culture medium. Each compound from the library was added to confluent cells to a final concentration of 30 μM. After 24 hours of treatment, culture medium was collected and dissolved 10-fold and 2-fold for measuring the level of Aβ1-40 and Aβ1-42, respectively. Aβ1-40 and Aβ1-42 were determined using commercially available ELISAs (Biosource, CA), following the recommendations of the manufacturer.
SMILES,concentration of Aβ1-40 compared to controls,concentration of Aβ1-42 compared to controls,concentration of total β-amyloid (Aβ1-40+Aβ1-42) compared to controls
"CCOC(=O)C1=C(C)NC(C)=C(C(=O)OCC)C1c1ccc(Cl)cc1 [BTB 14328, diethyl 4-(4-chlorophenyl)-2,6-dimethyl-1,4-dihydropyridine-3,5-dicarboxylate]",significantly decreased,significantly decreased,significantly decreased
"CCOC(=O)C1=C(C)NC(C)=C(C(=O)OCC)C1c1ccc(-c2cc(C(F)(F)F)cc(C(F)(F)F)c2)o1 [CD 04170, diethyl 4-{5-[3,5-di(trifluoromethyl)phenyl]-2-furyl}-2,6-dimethyl-1,4-dihydro-pyridine-3,5-dicarboxylate]",significantly decreased,significantly decreased,significantly decreased
"O=C1C=C(c2ccccc2)CN(C2CCCCC2)C1=O [HTS 01512, 1-cyclohexyl-5-phenyl-1,6-dihydro-2,3-pyridinedione]",significantly decreased,significantly decreased,significantly decreased
"N#Cc1c(-c2cn(-c3ccccc3)nc2-c2ccccc2)cc(-c2ccccc2)[nH]c1=O [HTS 07578, 4-(1,3-diphenyl-1H-pyrazol-4-yl)-2-oxo-6-phenyl-1,2-dihydro-3-pyridinecarbonitrile]",significantly decreased,significantly decreased,significantly decreased
"N#Cc1c(-c2cccs2)cc(-c2ccccc2)[nH]c1=O [HTS 10306, 2-oxo-6-phenyl-4-(2-thienyl)-1,2-dihydro-3-pyridinecarbonitrile]",significantly decreased,significantly decreased,significantly decreased
"CCOC(=O)C1=C(C)NC(C)=C(C(=O)OCC)C1c1ccc(Br)cc1 [JFD 01209, diethyl 4-(4-bromophenyl)-2,6-dimethyl-1,4-dihydropyridine-3,5-dicarboxylate]",significantly decreased,significantly decreased,significantly decreased
"CCOC(=O)C1=C(C)NC(C)=C(C(=O)OCC)C1c1ccc([N+](=O)[O-])cc1 [JFD 03266, diethyl 2,6-dimethyl-4-(4-nitrophenyl)-1,4-dihydropyridine-3,5-dicarboxylate]",significantly decreased,,significantly decreased
"CCOC(=O)C1=C(C)NC(C)=C(C(=O)OCC)C1c1cccc(Cl)c1 [JFD 03274, diethyl 4-(3-chlorophenyl)-2,6-dimethyl-1,4-dihydropyridine-3,5-dicarboxylate]",significantly decreased,,significantly decreased
"CCOC(=O)C1=C(C)NC(C)=C(C(=O)OCC)C1c1ccc(C)cc1 [JFD 03282, diethyl 2,6-dimethyl-4-(4-methylphenyl)-1,4-dihydropyridine-3,5-dicarboxylate]",significantly decreased,significantly decreased,significantly decreased
"CC1=C(C#N)C(c2ccc(Cl)c(Cl)c2)C(C#N)=C(C)N1 [JFD 03292, 4-(3,4-dichlorophenyl)-2,6-dimethyl-1,4-dihydropyridine-3,5-dicarbonitrile]",significantly decreased,,significantly decreased
